From article PMC3799806 (Bioorganic & medicinal chemistry, 2012)

Tested on: HG23 cells
Test: cell cytotoxicity assay kit
Format: cell-based
Conditions: TD50

O=C(CN(Cc1ccccc1)S(=O)(=O)NCc1cccc(Oc2ccccc2)c1)NCCN1CCOCC1 [Compound 11b, 2-(Benzyl(N-(3-phenoxybenzyl)sulfamoyl)amino)-N-(2-morpholinoethyl)acetamide] was tested, and the “higher toxicity versus compound 11a” value was ~ 8 fold.
